# Results taken from patent publication US20190031717A1, “MULTI-FUNCTIONAL FUSION POLYPEPTIDE, PREPARATION METHOD THEREOF, AND APPLICATION OF SAME” (NANJING ANJI BIOLOGICAL TECHNOLOGY CO., LTD, priority 2016, published 2019).
# Experiments:
# protozoa = test: Mouse pneumonia model, protozoal; assay type: in vivo, BALB/C mice; parameters: concentration or dose not given beside the values; details: mean ± SD
# Description: (§1) The mouse pneumonia model was successfully established by the nose-drop method. To build the mouse pneumonia model, BALB/C mice with a body mass of 16-22 g were selected and anesthetized pneumonia chain was prepared after anesthesia with ether on day 0, day 1, and day 2. Staphylococcal fluid, adenovirus concentrate, Mycoplasma pneumoniae, Chlamydia pneumoniae, protozoa, and pneumonia fungi were slowly dripped into the nasal cavity of the mice, so that they enter the tracheobronchial. During the operation process, care was exercised to prevent bacterial fluid from flowing into the esophagus, which leads to inactivation the bacterial fluid. After successful model establishment, the polypeptides of the present invention were administered, and the results were shown in Table 5. […] The results were expressed in average value±standard deviation.
# Large cell lung cancer = test: MTT assay, lung cancer tumor cells; assay type: cell-based, human; parameters: concentration or dose not given beside the values; details: 48 h, mean ± SD
# Description: (§2) The inhibition of the growth of human lung cancer tumor cells by the polypeptide of the present invention was examined by MTT assay. The lung cancer tumor cells were cultured in a 37° C., 5% (volume fraction) CO2 incubator to a density of 90% or more, and collected by trypsinization. The cells were resuspended in the culture medium and counted under a microscope to adjust the cell concentration to 2.0×10^4 cells/mL, the cell suspension was inoculated into a 96-well plate at 100 μL per well, and cultured overnight at 37° C. in a 5% (volume fraction) CO2 incubator. After the cells were completely adhered, the polypeptide of the present invention was added as a drug-administered group, and a culture solution containing no drug was used as a blank control group, and the culture solution was diluted to each predetermined concentration. Each dilution was separately added to a 96-well plate at 100 μL per well and incubated for 48 h at 37° C. in a 5% (volume fraction) CO2 incubator. 20 μL of 5 mg/mL MTT was added to each well of a 96-well plate, and incubation was continued for 4 hours. The medium was aspirated, and the cells were dissolved in 100 μL of DMSO per well. The absorbance was measured by a microplate reader at a detection wavelength of 570 nm and a reference wavelength of 630 nm, and the growth inhibition rate was calculated as follows: tumor growth inhibition rate (%)=(1−administered group absorbance value/unadministered group absorbance value)×100%, and the experiment was repeated 3 times independently. The results obtained by the test were expressed as mean±standard deviation. The results in Table 6 indicate that the polypeptides of the present invention have a good inhibitory effect on proliferation of a variety of human lung cancer tumors (FIG. 5).
# Adenosquamous carcinoma = test: MTT assay, lung cancer tumor cells; assay type: cell-based, human; parameters: concentration or dose not given beside the values; details: 48 h, mean ± SD
# Description: as §2
# Squamous cell carcinoma = test: MTT assay, lung cancer tumor cells; assay type: cell-based, human; parameters: concentration or dose not given beside the values; details: 48 h, mean ± SD
# Description: as §2
# Adenocarcinoma = test: MTT assay, lung cancer tumor cells; assay type: cell-based, human; parameters: concentration or dose not given beside the values; details: 48 h, mean ± SD
# Description: as §2
# Small Cell Lung Cancer = test: MTT assay, lung cancer tumor cells; assay type: cell-based, human; parameters: concentration or dose not given beside the values; details: 48 h, mean ± SD
# Description: as §2
# [1] = system: Non-small cell lung cancer; test: MTT assay, lung cancer tumor cells; assay type: cell-based, human; parameters: concentration or dose not given beside the values; details: 48 h, mean ± SD
# Description: as §2
# [2] = system: Pneumonia caused by lung infection; test: Mouse pneumonia model, pneumonia caused by lung infection; assay type: in vivo, BALB/C mice; parameters: concentration or dose not given beside the values; details: mean ± SD
# Description: as §1
# adenovirus concentrate = test: Mouse pneumonia model, viral; assay type: in vivo, BALB/C mice; details: mean ± SD
# Description: as §1
# [3] = system: A549 cells induced by TGF-β1 (lung fibrosis model); test: Hydroxyproline content in TGF-β1-induced A549 pulmonary fibrosis cell model; assay type: cell-based, human; details: for Hydroxyproline Content Inhibition Rate in the Pulmonary Fibrosis Model: 48 hours
# Description: Human non-small cell lung cancer cells A549 were cultured in DMEM medium containing 10% (volume fraction) fetal bovine serum, cultured in a carbon dioxide incubator with a volume fraction of 5% at 37° C., and changed once every other day, depending on cell density. A549 cells in logarithmic growth phase were digested with 0.25% trypsin to prepare a cell suspension, adjusted to a cell concentration of 1×10^9 cells/L, and seeded at a density of 4×10^5 cells/cm2 in a cell culture dish of 90 cm^2. The cells were randomly divided into two groups: (1) control group: cultured in DMEM containing 10% (volume fraction) fetal bovine serum; (2) model group: containing 10% (volume fraction) fetal bovine serum, transforming growth factor (TGF-β1, final concentration 5 μg/L) was cultured in DMEM. The cells were cultured at 37° C. in a volumetric 5% carbon dioxide incubator, and changed every other day, depending on the cell density. Cell morphology was observed daily using an inverted microscope to determine when the model was established. When A549 cells are changed from the cobblestone shape of the original epithelial cells to the long spindle shape of the interstitial cells, the modeling is successfully established.
# After 48 hours of addition of the polypeptides, the cells of the control group, the model group, and the administration group were collected for subsequent measurement of molecular markers related to pulmonary fibrosis.
# Hydroxyproline accounts for 13.4% of collagen, so the content of hydroxyproline can reflect the accumulation of collagen during pulmonary fibrosis, which in turn reflects the degree of pulmonary fibrosis.
# Prepare citric acid buffer: 120 g of sodium citrate, 12 mL of glacial acetic acid, 46 g of citric acid, 34 g of sodium hydroxide, dissolved in distilled water, adjust the pH to 6.0, and then dilute to 1000 mL.
# Prepare 0.05 mol/L chloramine T solution: weigh 7.05 g of chloramine T, dissolve in 100 mL of distilled water, then add 150 mL of ethylene glycol, and add 250 mL of citric acid buffer to mix well.
# Prepare p-dimethylaminobenzaldehyde: Reagent A: Take 20 mL of absolute ethanol, slowly add 2.74 mL of concentrated sulfuric acid; Reagent B: Take 12.0 g of p-dimethylaminobenzaldehyde, slowly add 40 mL of absolute ethanol. Heat in a water bath to completely dissolve and cool to room temperature, then slowly add the A solution to B and mix well.
# Prepare a […] perchloric acid solution: take 27 mL of perchloric acid and dilute to 100 mL with distilled water.
# The specific steps are as follows: collect the cells in a 1 mL water solution and lyse the cells using a homogenizer; adjust the pH to neutral, dilute to 3 mL, add activated carbon to centrifuge; take 1 mL supernatant, add 1 mL solution 1 (1 mL citrate buffer and 1 mL 0.05 mol/L chloramine T solution), stand for 10 minutes, add 1 mL of perchloric acid, stand for 5 minutes, add 1 mL of p-dimethylaminobenzaldehyde reagent, keep in 60° C. water bath for 15 minutes; centrifuge at 3500 rpm/min for 10 minutes, take the supernatant to measure the absorbance value at a wavelength of 550 nm.
# The test was repeated 3 times independently, and the inhibition rate was calculated as follows: inhibition rate (%)=(1−experimental group absorbance/model group absorbance)×100%.
# Chlamydia pneumoniae = test: Mouse pneumonia model, chlamydia; assay type: in vivo, BALB/C mice; parameters: concentration or dose not given beside the values; details: mean ± SD
# Description: as §1
substance,measurement,setting,value
Pro-(D-Pyr)-(D-Cys)-Bip-Arg-Gly-Glu-Gly-Gly-Gly-Gly-Ile-Val-Arg-Arg-Ala-Asp-Arg-Ala-Ala-Val-Pro-Gly-Gly-Gly-Gly-Arg-Gly-Asp [Polypeptide I],Inhibitory Effects on Various Pulmonary Infections,protozoa,46.25 ± 18.59%
same,"tumor growth inhibition rate, MTT Assay",Large cell lung cancer,65.87 ± 14.65%
same,"tumor growth inhibition rate, MTT Assay",Adenosquamous carcinoma,44.84 ± 12.58%
same,"tumor growth inhibition rate, MTT Assay",Squamous cell carcinoma,49.73 ± 9.76%
same,"tumor growth inhibition rate, MTT Assay",Adenocarcinoma,65.67 ± 13.74%
same,"tumor growth inhibition rate, MTT Assay",Small Cell Lung Cancer,52.70 ± 13.22%
same,"tumor growth inhibition rate, MTT Assay",[1],69.38 ± 18.03%
same,Inhibitory Effects on Various Pulmonary Infections,[2],38.79 ± 16.78%
same,Inhibitory Effects on Various Pulmonary Infections,adenovirus concentrate,43.78 ± 14.17%
same,"effect on content of hydroxyproline in lung fibrosis model cells (FIG. 1-3), in words",[3],can inhibit the content of hydroxyproline in lung fibrosis model cells
same,Hydroxyproline Content Inhibition Rate in the Pulmonary Fibrosis Model,[3]; 4 uM,36.50%
same,Hydroxyproline Content Inhibition Rate in the Pulmonary Fibrosis Model,[3]; 8 uM,52.14%
same,Inhibitory Effects on Various Pulmonary Infections,Chlamydia pneumoniae,35.13 ± 13.63%
